Test results taken from PubChem BioAssay AID2060900 (Molecular Pharmacology Branch, DTP, NCI, 2025).

System: 521955-158-R2-J5-PDC complex spheroids, viability
Assay: Anticancer human tumor 521955-158-R2-J5-PDC patient-derived pancreatic carcinoma cell line growth inhibition [RAS]
Details: for IC50: curve of first compound; for viability, T/C: stronger effect = lower value
In short: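 Multi-cell-type spheroids: tumor cells plus HUVEC endothelial cells and mesenchymal stem cells. RAS-pathway inhibitors were combined with targeted agents, each dosed in half-log steps down from clinical Cmax, or from 10 microM when Cmax was unknown.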
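Further: compound exposure lasted seven days before the viability read.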
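Wherever viability, T/C is given: spheroids also contain HUVEC endothelial cells and mesenchymal stem cells as stroma.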

C=CC(=O)N1CCN(c2nc(OCC3CCCN3C)nc3c(F)c(-c4nc(N)cc(C)c4C(F)(F)F)c(Cl)cc23)C(C)C1 (centres undefined) + CCn1c(-c2cccnc2C(C)OC)c2c3cc(ccc31)N1CCOC(CC(NC(=O)C(C(C)C)N(C)C(=O)C3(F)CCN(C(=O)C#CC(C)(C)N(C)C)CC3)C(=O)N3CCCC(N3)C(=O)OCC(C)(C)C2)C1 was tested, and the IC50 (second compound 0.000949 µM) was greater than 1000 nM, the IC50 (second compound 0.003 µM) was greater than 1000 nM and the IC50 (second compound 0.00949 µM) was greater than 1000 nM. The IC50 (second compound 0.03 µM) was greater than 1000 nM, the IC50 (second compound 0.0949 µM) was greater than 1000 nM and the IC50 (second compound 0.3 µM) was greater than 1000 nM. It also gave a viability, T/C (second compound 0.000949 µM, first compound 0.00316 µM) of 100%, a viability, T/C (second compound 0.000949 µM, first compound 0.01 µM) of 104% and a viability, T/C (second compound 0.000949 µM, first compound 0.0316 µM) of 104%. It also gave a viability, T/C (second compound 0.000949 µM, first compound 0.1 µM) of 103%, a viability, T/C (second compound 0.000949 µM, first compound 0.316 µM) of 99.1% and a viability, T/C (second compound 0.000949 µM, first compound 1 µM) of 92.7%. It also gave a viability, T/C (second compound 0.003 µM, first compound 0.00316 µM) of 93.2%, a viability, T/C (second compound 0.003 µM, first compound 0.01 µM) of 88.3% and a viability, T/C (second compound 0.003 µM, first compound 0.0316 µM) of 107%. The viability, T/C (second compound 0.003 µM, first compound 0.1 µM) was 113%, the viability, T/C (second compound 0.003 µM, first compound 0.316 µM) was 86.5% and the viability, T/C (second compound 0.003 µM, first compound 1 µM) was 94.7%. For the same molecule, the viability, T/C (second compound 0.00949 µM, first compound 0.00316 µM) was 97.7%, the viability, T/C (second compound 0.00949 µM, first compound 0.01 µM) was 111% and the viability, T/C (second compound 0.00949 µM, first compound 0.0316 µM) was 109%. The viability, T/C (second compound 0.00949 µM, first compound 0.1 µM) was 115%, the viability, T/C (second compound 0.00949 µM, first compound 0.316 µM) was 97.9% and the viability, T/C (second compound 0.00949 µM, first compound 1 µM) was 97.7%. It also gave a viability, T/C (second compound 0.03 µM, first compound 0.00316 µM) of 99.3%, a viability, T/C (second compound 0.03 µM, first compound 0.01 µM) of 92.8% and a viability, T/C (second compound 0.03 µM, first compound 0.0316 µM) of 97.7%. It also gave a viability, T/C (second compound 0.03 µM, first compound 0.1 µM) of 95.8%, a viability, T/C (second compound 0.03 µM, first compound 0.316 µM) of 95.2% and a viability, T/C (second compound 0.03 µM, first compound 1 µM) of 91.9%. It also gave a viability, T/C (second compound 0.0949 µM, first compound 0.00316 µM) of 88.5%, a viability, T/C (second compound 0.0949 µM, first compound 0.01 µM) of 86.8% and a viability, T/C (second compound 0.0949 µM, first compound 0.0316 µM) of 104%. For the same molecule, the viability, T/C (second compound 0.0949 µM, first compound 0.1 µM) was 96.4%, the viability, T/C (second compound 0.0949 µM, first compound 0.316 µM) was 98.1% and the viability, T/C (second compound 0.0949 µM, first compound 1 µM) was 74.4%. For the same molecule, the viability, T/C (second compound 0.3 µM, first compound 0.00316 µM) was 80%, the viability, T/C (second compound 0.3 µM, first compound 0.01 µM) was 78.2% and the viability, T/C (second compound 0.3 µM, first compound 0.0316 µM) was 90.1%. The viability, T/C (second compound 0.3 µM, first compound 0.1 µM) was 69.1%, the viability, T/C (second compound 0.3 µM, first compound 0.316 µM) was 89.4% and the viability, T/C (second compound 0.3 µM, first compound 1 µM) was 79.7%.
CC1(C)CCC(Nc2ncc(C(F)(F)F)c(-c3c[nH]c4c(P(C)(C)=O)c(C#N)ccc34)n2)CN1 (centres undefined) + CCn1c(-c2cccnc2C(C)OC)c2c3cc(ccc31)N1CCOC(CC(NC(=O)C(C(C)C)N(C)C(=O)C3(F)CCN(C(=O)C#CC(C)(C)N(C)C)CC3)C(=O)N3CCCC(N3)C(=O)OCC(C)(C)C2)C1 showed an IC50 (second compound 0.000949 µM) of 7.81 nM, an IC50 (second compound 0.003 µM) of 8.8 nM and an IC50 (second compound 0.00949 µM) of 8.56 nM. For the same molecule, the IC50 (second compound 0.03 µM) was 6.8 nM, the IC50 (second compound 0.0949 µM) was 7.28 nM and the IC50 (second compound 0.3 µM) was 5.8 nM. The viability, T/C (second compound 0.000949 µM, first compound 0.000949 µM) was 88.5%, the viability, T/C (second compound 0.000949 µM, first compound 0.003 µM) was 60.9% and the viability, T/C (second compound 0.000949 µM, first compound 0.00949 µM) was 50.1%. It also gave a viability, T/C (second compound 0.000949 µM, first compound 0.03 µM) of 39.2%, a viability, T/C (second compound 0.000949 µM, first compound 0.0949 µM) of 40.7% and a viability, T/C (second compound 0.000949 µM, first compound 0.3 µM) of 43%. The viability, T/C (second compound 0.003 µM, first compound 0.000949 µM) was 106%, the viability, T/C (second compound 0.003 µM, first compound 0.003 µM) was 65.2% and the viability, T/C (second compound 0.003 µM, first compound 0.00949 µM) was 49.9%. For the same molecule, the viability, T/C (second compound 0.003 µM, first compound 0.03 µM) was 44%, the viability, T/C (second compound 0.003 µM, first compound 0.0949 µM) was 39.7% and the viability, T/C (second compound 0.003 µM, first compound 0.3 µM) was 45.7%. For the same molecule, the viability, T/C (second compound 0.00949 µM, first compound 0.000949 µM) was 83.2%, the viability, T/C (second compound 0.00949 µM, first compound 0.003 µM) was 62.5% and the viability, T/C (second compound 0.00949 µM, first compound 0.00949 µM) was 52%. It also gave a viability, T/C (second compound 0.00949 µM, first compound 0.03 µM) of 36.2%, a viability, T/C (second compound 0.00949 µM, first compound 0.0949 µM) of 42.5% and a viability, T/C (second compound 0.00949 µM, first compound 0.3 µM) of 54.1%. For the same molecule, the viability, T/C (second compound 0.03 µM, first compound 0.000949 µM) was 90.5%, the viability, T/C (second compound 0.03 µM, first compound 0.003 µM) was 68.7% and the viability, T/C (second compound 0.03 µM, first compound 0.00949 µM) was 40.9%. The viability, T/C (second compound 0.03 µM, first compound 0.03 µM) was 38.4%, the viability, T/C (second compound 0.03 µM, first compound 0.0949 µM) was 41.8% and the viability, T/C (second compound 0.03 µM, first compound 0.3 µM) was 48.4%. It also gave a viability, T/C (second compound 0.0949 µM, first compound 0.000949 µM) of 80.8%, a viability, T/C (second compound 0.0949 µM, first compound 0.003 µM) of 66.2% and a viability, T/C (second compound 0.0949 µM, first compound 0.00949 µM) of 45.4%. It also gave a viability, T/C (second compound 0.0949 µM, first compound 0.03 µM) of 38.9%, a viability, T/C (second compound 0.0949 µM, first compound 0.0949 µM) of 40% and a viability, T/C (second compound 0.0949 µM, first compound 0.3 µM) of 39%. It also gave a viability, T/C (second compound 0.3 µM, first compound 0.000949 µM) of 68.2%, a viability, T/C (second compound 0.3 µM, first compound 0.003 µM) of 65.1% and a viability, T/C (second compound 0.3 µM, first compound 0.00949 µM) of 38.7%. For the same molecule, the viability, T/C (second compound 0.3 µM, first compound 0.03 µM) was 34.2%, the viability, T/C (second compound 0.3 µM, first compound 0.0949 µM) was 38.2% and the viability, T/C (second compound 0.3 µM, first compound 0.3 µM) was 40.1%.
